From ChEMBL document CHEMBL4177526, “Discovery and structure activity relationship of the first potent cryptosporidium FIKK kinase inhibitor” (Bioorg Med Chem, 2017)

Assays:
[1] = target: Serine/threonine-protein kinase PAK 5 (Homo sapiens) (UniProt Q9P286); assay: Inhibition of human PAK5 (2 to 719 residues) assessed as residual activity at 500 nM in presence of 33P-ATP by filter binding assay relative to control
Cryptosporidium parvum = assay: Selectivity ratio of IC50 for Cryptosporidium parvum CDPK1 to IC50 for recombinant Cryptosporidium parvum FIKK
[2] = target: Mitogen-activated protein kinase kinase kinase kinase 5 (Homo sapiens) (UniProt Q9Y4K4); assay: Inhibition of MAP4K5 (unknown origin) assessed as residual activity at 500 nM relative to control
[3] = target: Homeodomain-interacting protein kinase 2 (Homo sapiens) (UniProt Q9H2X6); assay: Inhibition of human HIPK2 (165 to 564 residues) assessed as residual activity at 500 nM in presence of 33P-ATP by filter binding assay relative to control
Sequence of Homeodomain-interacting protein kinase 2 (Homo sapiens) (Q9H2X6 whole entry, looked up, the tested form may be a part): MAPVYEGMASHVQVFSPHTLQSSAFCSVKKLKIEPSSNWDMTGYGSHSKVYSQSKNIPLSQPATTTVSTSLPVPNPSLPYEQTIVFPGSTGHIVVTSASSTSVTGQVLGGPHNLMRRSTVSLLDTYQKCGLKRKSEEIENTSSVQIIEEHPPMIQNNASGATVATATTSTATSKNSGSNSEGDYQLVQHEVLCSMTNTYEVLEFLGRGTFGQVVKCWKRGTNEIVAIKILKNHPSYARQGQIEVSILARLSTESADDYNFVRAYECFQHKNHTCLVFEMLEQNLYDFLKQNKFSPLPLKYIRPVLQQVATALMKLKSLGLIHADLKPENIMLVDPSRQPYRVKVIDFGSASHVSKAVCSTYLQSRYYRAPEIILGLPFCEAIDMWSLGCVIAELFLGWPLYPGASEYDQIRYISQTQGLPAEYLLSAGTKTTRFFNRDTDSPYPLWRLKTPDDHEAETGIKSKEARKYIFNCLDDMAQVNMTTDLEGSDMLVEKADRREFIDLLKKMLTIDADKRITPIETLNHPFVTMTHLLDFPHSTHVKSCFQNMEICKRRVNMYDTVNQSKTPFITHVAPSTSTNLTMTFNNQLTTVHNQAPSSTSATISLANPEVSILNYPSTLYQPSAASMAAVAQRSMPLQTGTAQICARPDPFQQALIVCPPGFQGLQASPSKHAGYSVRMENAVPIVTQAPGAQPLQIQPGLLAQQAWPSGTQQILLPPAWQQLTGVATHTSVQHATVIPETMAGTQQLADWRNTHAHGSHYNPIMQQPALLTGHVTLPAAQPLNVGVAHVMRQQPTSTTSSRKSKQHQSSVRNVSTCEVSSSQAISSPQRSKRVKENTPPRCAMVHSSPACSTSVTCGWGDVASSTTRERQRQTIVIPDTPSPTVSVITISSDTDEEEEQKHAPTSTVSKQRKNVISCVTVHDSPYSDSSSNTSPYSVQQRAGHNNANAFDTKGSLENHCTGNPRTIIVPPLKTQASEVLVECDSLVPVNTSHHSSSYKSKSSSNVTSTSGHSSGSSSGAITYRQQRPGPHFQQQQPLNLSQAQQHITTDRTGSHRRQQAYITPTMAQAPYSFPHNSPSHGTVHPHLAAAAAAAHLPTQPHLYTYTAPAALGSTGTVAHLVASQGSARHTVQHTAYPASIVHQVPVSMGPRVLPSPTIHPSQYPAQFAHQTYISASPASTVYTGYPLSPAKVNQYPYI

[4] = target: Serine/threonine-protein kinase Sgk1 (Homo sapiens) (UniProt O00141); assay: Inhibition of human SGK1 (60 to 431 residues) assessed as residual activity at 500 nM in presence of 33P-ATP by filter binding assay relative to control
[5] = target: Mitogen-activated protein kinase 15 (Homo sapiens) (UniProt Q8TD08); assay: Inhibition of human ERK8 (2 to 544 residues) assessed as residual activity at 500 nM in presence of 33P-ATP by filter binding assay relative to control
[6] = target: AMPK alpha1/beta2/gamma1 (Homo sapiens) (UniProt O43741+P54619+Q13131); assay: Inhibition of human AMPKalpha1 (11 to 559 residues)/beta2 (1 to 272 residues)/gamma1 (1 to 331 residues) assessed as residual activity at 500 nM in presence of 33P-ATP by filter binding assay relative to control; assay type: protein-complex assay
[7] = target: Serine/threonine-protein kinase WNK1 (Homo sapiens) (UniProt Q9H4A3); assay: Inhibition of human WNK1 (1 to 661 residues) assessed as residual activity at 500 nM in presence of 33P-ATP by filter binding assay relative to control
Sequence of Serine/threonine-protein kinase WNK1 (Homo sapiens) (Q9H4A3 whole entry, looked up, the tested form may be a part): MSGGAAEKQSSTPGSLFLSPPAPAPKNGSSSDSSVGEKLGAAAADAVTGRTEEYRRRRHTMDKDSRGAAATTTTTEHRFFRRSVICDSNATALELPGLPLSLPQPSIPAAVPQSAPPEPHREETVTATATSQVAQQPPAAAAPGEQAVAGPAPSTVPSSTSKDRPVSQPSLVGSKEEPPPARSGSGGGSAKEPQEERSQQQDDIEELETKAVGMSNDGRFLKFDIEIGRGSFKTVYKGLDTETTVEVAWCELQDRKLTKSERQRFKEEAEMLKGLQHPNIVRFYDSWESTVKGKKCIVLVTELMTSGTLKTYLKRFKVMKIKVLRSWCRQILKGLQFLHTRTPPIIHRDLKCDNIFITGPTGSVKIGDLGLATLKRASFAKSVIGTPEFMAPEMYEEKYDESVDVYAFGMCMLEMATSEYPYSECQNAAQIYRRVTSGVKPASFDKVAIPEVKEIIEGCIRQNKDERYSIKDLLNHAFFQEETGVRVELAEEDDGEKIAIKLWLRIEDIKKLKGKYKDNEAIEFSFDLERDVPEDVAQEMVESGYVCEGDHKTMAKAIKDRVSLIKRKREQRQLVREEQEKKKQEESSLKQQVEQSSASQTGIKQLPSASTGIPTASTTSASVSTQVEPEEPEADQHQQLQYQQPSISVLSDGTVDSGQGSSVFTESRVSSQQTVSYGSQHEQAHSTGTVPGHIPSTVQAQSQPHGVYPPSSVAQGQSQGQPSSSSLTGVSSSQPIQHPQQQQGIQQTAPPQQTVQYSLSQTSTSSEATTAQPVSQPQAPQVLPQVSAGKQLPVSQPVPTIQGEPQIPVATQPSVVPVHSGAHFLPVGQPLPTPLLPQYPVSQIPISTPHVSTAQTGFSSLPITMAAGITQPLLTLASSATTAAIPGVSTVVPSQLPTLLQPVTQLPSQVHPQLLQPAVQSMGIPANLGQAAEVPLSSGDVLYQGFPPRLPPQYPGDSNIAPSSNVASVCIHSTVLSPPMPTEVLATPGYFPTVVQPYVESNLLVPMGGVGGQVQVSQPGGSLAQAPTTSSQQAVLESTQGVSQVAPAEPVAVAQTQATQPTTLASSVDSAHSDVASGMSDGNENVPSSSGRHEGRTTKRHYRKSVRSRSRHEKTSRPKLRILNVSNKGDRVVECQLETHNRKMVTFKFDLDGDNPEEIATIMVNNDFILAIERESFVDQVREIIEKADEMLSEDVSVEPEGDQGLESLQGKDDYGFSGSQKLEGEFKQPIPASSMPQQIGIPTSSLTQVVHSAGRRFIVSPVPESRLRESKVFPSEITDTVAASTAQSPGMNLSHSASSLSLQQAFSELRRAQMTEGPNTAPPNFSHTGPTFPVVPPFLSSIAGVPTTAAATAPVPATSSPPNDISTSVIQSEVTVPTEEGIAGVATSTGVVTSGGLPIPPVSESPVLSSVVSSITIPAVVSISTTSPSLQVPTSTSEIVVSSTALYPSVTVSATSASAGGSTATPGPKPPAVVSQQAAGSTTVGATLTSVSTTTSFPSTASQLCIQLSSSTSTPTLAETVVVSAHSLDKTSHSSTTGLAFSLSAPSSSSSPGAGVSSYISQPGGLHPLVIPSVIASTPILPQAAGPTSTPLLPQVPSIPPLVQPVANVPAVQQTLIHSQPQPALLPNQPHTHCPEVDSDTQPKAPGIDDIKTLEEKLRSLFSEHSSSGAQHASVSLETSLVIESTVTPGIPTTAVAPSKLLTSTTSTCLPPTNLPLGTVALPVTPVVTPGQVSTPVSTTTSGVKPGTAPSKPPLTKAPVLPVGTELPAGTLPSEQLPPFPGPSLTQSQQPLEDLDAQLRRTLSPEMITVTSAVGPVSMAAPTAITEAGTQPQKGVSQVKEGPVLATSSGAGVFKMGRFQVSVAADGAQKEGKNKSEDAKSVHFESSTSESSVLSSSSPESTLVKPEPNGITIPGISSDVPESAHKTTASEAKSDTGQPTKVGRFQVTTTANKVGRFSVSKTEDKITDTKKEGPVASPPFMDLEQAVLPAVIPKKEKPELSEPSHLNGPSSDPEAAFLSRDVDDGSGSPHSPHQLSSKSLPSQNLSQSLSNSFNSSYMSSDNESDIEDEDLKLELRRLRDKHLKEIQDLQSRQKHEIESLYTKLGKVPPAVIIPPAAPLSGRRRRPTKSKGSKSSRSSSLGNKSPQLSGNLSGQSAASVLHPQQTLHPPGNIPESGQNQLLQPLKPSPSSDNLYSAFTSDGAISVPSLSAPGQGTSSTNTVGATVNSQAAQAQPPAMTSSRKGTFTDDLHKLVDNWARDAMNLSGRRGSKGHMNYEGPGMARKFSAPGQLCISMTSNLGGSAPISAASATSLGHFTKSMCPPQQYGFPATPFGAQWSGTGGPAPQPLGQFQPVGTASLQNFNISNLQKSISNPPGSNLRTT

[8] = target: Dual specificity mitogen-activated protein kinase kinase 1 (Homo sapiens) (UniProt Q02750); assay: Inhibition of human MKK1 (2 to 393 residues) assessed as residual activity at 500 nM in presence of 33P-ATP by filter binding assay relative to control
[9] = target: Serine/threonine-protein kinase 3 (Homo sapiens) (UniProt Q13188); assay: Inhibition of human MST2 (2 to 491 residues) assessed as residual activity at 500 nM in presence of 33P-ATP by filter binding assay relative to control
[10] = target: Angiopoietin-1 receptor (Homo sapiens) (UniProt Q02763); assay: Inhibition of human TIE2 (771 to 1124 residues) assessed as residual activity at 500 nM in presence of 33P-ATP by filter binding assay relative to control
[11] = target: Homeodomain-interacting protein kinase 1 (Homo sapiens) (UniProt Q86Z02); assay: Inhibition of human HIPK1 (158 to 555 residues) assessed as residual activity at 500 nM in presence of 33P-ATP by filter binding assay relative to control
[12] = target: Proto-oncogene tyrosine-protein kinase Src (Homo sapiens) (UniProt P12931); assay: Inhibition of human SRC (1 to 536 residues) assessed as residual activity at 500 nM in presence of 33P-ATP by filter binding assay relative to control
[13] = target: Inhibitor of nuclear factor kappa-B kinase subunit epsilon (Homo sapiens) (UniProt Q14164); assay: Inhibition of human IKKepsilon (1 to 716 residues) assessed as residual activity at 500 nM in presence of 33P-ATP by filter binding assay relative to control
[14] = target: Serine/threonine-protein kinase pim-2 (Homo sapiens) (UniProt Q9P1W9); assay: Inhibition of human PIM2 (2 to 334 residues) assessed as residual activity at 500 nM in presence of 33P-ATP by filter binding assay relative to control
[15] = target: Tyrosine-protein kinase CSK (Homo sapiens) (UniProt P41240); assay: Inhibition of human CSK (1 to 450 residues) assessed as residual activity at 500 nM in presence of 33P-ATP by filter binding assay relative to control
[16] = target: Serine/threonine-protein kinase TAO1 (Homo sapiens) (UniProt Q7L7X3); assay: Inhibition of human TAO1 (1 to 356 residues) assessed as residual activity at 500 nM in presence of 33P-ATP by filter binding assay relative to control
[17] = target: MAP kinase-interacting serine/threonine-protein kinase 2 (Homo sapiens) (UniProt Q9HBH9); assay: Inhibition of human MNK2alpha (2 to 465 residues) assessed as residual activity at 500 nM in presence of 33P-ATP by filter binding assay relative to control
[18] = target: Casein kinase I isoform delta (Homo sapiens) (UniProt P48730); assay: Inhibition of human CK1delta (1 to 415 residues) assessed as residual activity at 500 nM in presence of 33P-ATP by filter binding assay relative to control
[19] = target: NUAK family SNF1-like kinase 1 (Homo sapiens) (UniProt O60285); assay: Inhibition of human NUAK1 (2 to 660 residues) assessed as residual activity at 500 nM in presence of 33P-ATP by filter binding assay relative to control
Sequence of NUAK family SNF1-like kinase 1 (Homo sapiens) (O60285 whole entry, the tested form may be a part): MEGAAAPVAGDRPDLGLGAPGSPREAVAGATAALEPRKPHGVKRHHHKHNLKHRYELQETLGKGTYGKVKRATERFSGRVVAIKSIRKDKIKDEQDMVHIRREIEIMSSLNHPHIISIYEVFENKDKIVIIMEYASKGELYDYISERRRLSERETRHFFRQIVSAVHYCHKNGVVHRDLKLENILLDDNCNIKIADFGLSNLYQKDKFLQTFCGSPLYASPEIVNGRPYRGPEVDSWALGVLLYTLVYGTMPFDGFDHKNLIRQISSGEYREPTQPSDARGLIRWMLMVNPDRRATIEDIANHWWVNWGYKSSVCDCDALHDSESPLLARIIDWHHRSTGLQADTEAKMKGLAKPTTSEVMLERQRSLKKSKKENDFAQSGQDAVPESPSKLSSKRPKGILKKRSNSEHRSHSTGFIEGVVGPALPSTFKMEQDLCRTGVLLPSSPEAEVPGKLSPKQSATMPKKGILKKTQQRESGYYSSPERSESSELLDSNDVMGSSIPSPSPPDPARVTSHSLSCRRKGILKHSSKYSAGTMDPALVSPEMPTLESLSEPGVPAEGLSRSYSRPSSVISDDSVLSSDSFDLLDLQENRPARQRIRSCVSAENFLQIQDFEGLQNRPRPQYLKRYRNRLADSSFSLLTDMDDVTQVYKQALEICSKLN

[20] = target: Fibroblast growth factor receptor 1 (Homo sapiens) (UniProt P11362); assay: Inhibition of human FGFR1 (400 to 820 residues) assessed as residual activity at 500 nM in presence of 33P-ATP by filter binding assay relative to control
[21] = target: Mitogen-activated protein kinase 1 (Homo sapiens) (UniProt P28482); assay: Inhibition of human ERK2 (2 to 360 residues) assessed as residual activity at 500 nM in presence of 33P-ATP by filter binding assay relative to control
Sequence of Mitogen-activated protein kinase 1 (Homo sapiens) (P28482 whole entry, the tested form may be a part): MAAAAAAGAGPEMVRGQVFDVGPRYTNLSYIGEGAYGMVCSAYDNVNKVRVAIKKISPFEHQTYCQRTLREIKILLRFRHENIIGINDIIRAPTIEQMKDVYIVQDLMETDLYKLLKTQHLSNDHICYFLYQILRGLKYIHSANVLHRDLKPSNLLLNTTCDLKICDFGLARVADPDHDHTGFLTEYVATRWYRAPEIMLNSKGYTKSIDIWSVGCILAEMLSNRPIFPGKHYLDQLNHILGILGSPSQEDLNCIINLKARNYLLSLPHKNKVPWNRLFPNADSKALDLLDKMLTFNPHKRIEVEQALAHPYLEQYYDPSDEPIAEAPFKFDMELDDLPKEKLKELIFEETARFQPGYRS

[22] = target: Protein-tyrosine kinase 6 (Homo sapiens) (UniProt Q13882); assay: Inhibition of human BRK (1 to 451 residues) assessed as residual activity at 500 nM in presence of 33P-ATP by filter binding assay relative to control
[23] = target: Tyrosine-protein kinase Yes (Homo sapiens) (UniProt P07947); assay: Inhibition of human YES1 (1 to 543 residues) assessed as residual activity at 500 nM in presence of 33P-ATP by filter binding assay relative to control
[24] = target: Mitogen-activated protein kinase 14 (Homo sapiens) (UniProt Q16539); assay: Inhibition of human p38alpha (1 to 360 residues) assessed as residual activity at 500 nM in presence of 33P-ATP by filter binding assay relative to control
Sequence of Mitogen-activated protein kinase 14 (Homo sapiens) (Q16539 whole entry, the tested form may be a part): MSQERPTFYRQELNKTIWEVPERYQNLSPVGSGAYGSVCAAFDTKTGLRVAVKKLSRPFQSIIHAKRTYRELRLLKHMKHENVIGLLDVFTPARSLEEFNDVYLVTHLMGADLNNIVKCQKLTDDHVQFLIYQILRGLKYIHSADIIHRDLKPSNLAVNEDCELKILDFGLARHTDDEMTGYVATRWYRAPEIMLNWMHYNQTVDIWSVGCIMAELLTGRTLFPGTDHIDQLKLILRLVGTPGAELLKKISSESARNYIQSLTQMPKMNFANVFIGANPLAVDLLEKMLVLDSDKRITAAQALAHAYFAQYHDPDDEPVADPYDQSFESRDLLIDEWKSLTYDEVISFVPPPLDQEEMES

[25] = target: Receptor-interacting serine/threonine-protein kinase 2 (Homo sapiens) (UniProt O43353); assay: Inhibition of human RIPK2 (2 to 311 residues) at 500 nM in presence of 33P-ATP by filter binding assay relative to control
[26] = Efflux ratio of permeability in human Caco2 cells; assay type: ADME, cell-based; conditions: Caco-2

Q: Which Activity [1] does the source give for `Cc1cccc(-c2nc(N)sc2-c2ccc3ncccc3n2)c1` here?
A: The Activity was 107%.

Q: And the Ratio IC50 (Cryptosporidium parvum)?
A: Its Ratio IC50 is 940.

Q: What about the Activity [2] of the same molecule?
A: The Activity was 148%.

Q: What about the Activity [3] of the same molecule?
A: Its Activity is 131%.

Q: And the Activity [4]?
A: The Activity was 124%.

Q: What about the Activity [5] of the same molecule?
A: Its Activity is 123%.

Q: And the Activity [6]?
A: Its Activity is 120%.

Q: And the Activity [7]?
A: Its Activity is 107%.

Q: And the Activity [8]?
A: Its Activity is 115%.

Q: What about the Activity [9] of the same molecule?
A: The Activity was 109%.

Q: What about the Activity [10] of the same molecule?
A: The Activity was 106%.

Q: What about the Activity [11] of the same molecule?
A: The Activity was 106%.

Q: What about the Activity [12] of the same molecule?
A: The Activity was 105%.

Q: What about the Activity [13] of the same molecule?
A: The Activity was 101%.

Q: And the Activity [14]?
A: Its Activity is 101%.

Q: What about the Activity [15] of the same molecule?
A: The Activity was 99%.

Q: And the Activity [16]?
A: The Activity was 99%.

Q: What about the Activity [17] of the same molecule?
A: Its Activity is 98%.

Q: What about the Activity [18] of the same molecule?
A: Its Activity is 97%.

Q: What about the Activity [19] of the same molecule?
A: Its Activity is 86%.

Q: What about the Activity [20] of the same molecule?
A: Its Activity is 85%.

Q: And the Activity [21]?
A: Its Activity is 80%.

Q: What about the Activity [22] of the same molecule?
A: The Activity was 74%.

Q: What about the Activity [23] of the same molecule?
A: The Activity was 53%.

Q: What about the Activity [24] of the same molecule?
A: The Activity was 9%.

Q: What about the inhibition [25] of the same molecule?
A: The inhibition was 70%.

Q: What about the efflux ratio [26] of the same molecule?
A: Its efflux ratio is < 1.
